Test results: patent publication EP4389150A1, “CONJUGATE COMPOUNDS AND THEIR USE IN CANCER TREATMENT AND DIAGNOSIS” (Technische Universität München, priority 2022, dated 2024)
“Also recorded” adds a separate entry of the source.

Assays:
late stage mCRPC = late stage mCRPC patients, versus 11.3 months with standard therapy; Sartor et al., 2021; cited from earlier work
PSMA+ (LNCaP) = assay: Cell viability (Alamar Blue), monotherapy, PSMA+ cells; type: cell-based; conditions: 72h
Method: (§1) Black, clear-bottom 96 well culture plates were coated with poly-L-lysine. Afterwards, the plates were washed with PBS (1 × 100 µL), cells were seeded (2000 cells/well for PC3, 10000 cells/well for LNCaP), and cultured for 24 h (PC3) or 48 h (LNCaP) at 37 °C. The culture medium was removed, and new culture medium containing 10 mM GSH-OEt was added and incubated for 1 h at 37 °C. After removal of the GSH-OEt medium, new culture medium containing the PSMA-Ruc conjugates was added. After 72 h of incubation at 37 °C, cells were treated with Alamar Blue for visualization of cell viability. […] Each data points represents one biological replicate.

PSMA = biological target: T1, PSMA (Homo sapiens, UniProt Q04609); assay: IC50 determination by competition with [68Ga]-PSMA-617 on LNCaP cells; type: binding; conditions: [68Ga]-PSMA-617 0.4 nM, 60 min on ice, natGa-labelled ligands
T1 construct: endogenous in cells; host or cells: LNCaP cells
Method: In the meantime, dilution series of the compounds were prepared in 1% BSA (w/v)/HBSS in a separate 96 U-bottom deep well plate ranging from 12 µM to 153.6 pM in 1:5 dilution steps. Next, solutions (25 µL/well) of either 1% BSA (w/v)/HBSS (control) or of the respective dilution series were transferred to the LNCaP cells containing plate. Hereby, each concentration was pipetted in triplicates and each experiment was repeated three times. Subsequently, [^68Ga]-PSMA-617 (25 µL/well; 0.4 nM final concentration; AM = 26-30 MBq/nmol) in 1% BSA (w/v)/HBSS was added to all wells and the plate was incubated for 60 min on ice. Afterwards, the experiment was terminated by centrifugation at 600 g for 3 min and removal of the supernatant. The cells were then washed with ice-cold HBSS (150 µL/well), centrifuged (600 g, 3 min), and the supernatant as well as the washing fraction were combined, representing the amount of free, unbound radioligand. Bound radioligand was obtained by lysis of the cells with 1.0 N NaOH (150 µL/well; 10 min on ice). Afterwards, the plate was washed a second time with 1.0 N NaOH (150 µL/well). Hereby, the washing step was combined with the NaOH fraction. The quantification of bound and free radioligand was finally accomplished via measuring the samples in a γ-counter.

[1] = Lipophilicity, n-octanol/PBS distribution coefficient; type: physicochemical; conditions: pH 7.4
Method: Lipophilicity of the conjugates was determine after radiolabeling with ^68Ga. The PSMA ligand (0.80 MBq) was dissolved in PBS (500 µL/pH 7.4) in a reaction vial (1.5 mL; n = 10). Afterwards, n-octanol was added (500 µL) and the mixture was rigorously vortexed for 3 min. Subsequent centrifugation (Biofuge 15, Heraus Sepatech, Osterode, Germany) at 13,000 rpm for 5 min led to a phase separation. After measuring 100 µL of each phase in a γ-counter, the distribution coefficient (logD(O/PBS)) was calculated with Microsoft Excel.

LNCaP cells = assay: Binding and internalization (cell uptake) of 68Ga-labelled PSMA ligands in LNCaP cells; type: cell-based
Method: To determine ligand internalization, LNCaP cells were seeded in a 96 V-bottom well plate at a density of 100,000 cells/well in 5% BSA (w/v)/RPMI medium (100 µL/well) and incubated for 30 min at 37 °C. Afterwards, solutions (25 µL/well) of either 5% BSA (w/v)/RPMI medium or of 2-PMPA (final concentration: 10 µM) in 5% BSA (w/v)/RPMI medium for blockade were added. Then, a solution of the ^68Ga-labeled PSMA-ligand (25 µL/well; 0.4 nM final concentration; AM = 26-30 MBq/nmol) was added to all wells, and the cells were incubated for 5, 15, 30, and 60 min, respectively, at 37 °C. Hereby, each time point was performed in triplicates and each experiment was repeated three times. The internalization process was terminated by placing the plate for 5 min on ice. The free radioligand was obtained by centrifugation of the plate at 600 g for 3 min and removal of the supernatant. Each well was then washed with ice-cold PBS and the fractions of the first two steps were combined. For removal of cell-bound PSMA-ligand, the cells were treated in a next step with ice-cold 2-PMPA-solution (10 µM in PBS; 150 µL/well; 15 min on ice), centrifuged (600 g, 3 min), and washed with ice-cold PBS (150 µL/well). The fractions were again combined. For the analysis of internalized radioligand, the fractions of a 1.0 N NaOH (150 µL/well; 10 min on ice) treatment as well as a concomitant washing step with 1.0 N NaOH (150 µL/well) were pooled. Free, surface bound, and internalized activity, respectively, was measured in a γ-counter.

Serum stability = type: in vitro ADME; conditions: 37 °C
Method: For serum stability analysis, 13.5 µL human serum were mixed with 1.5 µL of an aqueous solution of the test compound (200 µM final concentration) and incubated at 37 °C for 0.5, 1, 2, and 24 h, respectively. Afterwards, 25.0 µL MeCN were added, the suspension was centrifuged (14,000 rpm, 30 min, 4 °C), the supernatant was recovered, and finally analyzed by HPLC-ESI-MS using a linear elution gradient from 10 to 95% (v/v) MeCN/0.1% (v/v) TFA in water/0.1% (v/v) TFA for 15 min.

mCRPC = conditions: TRITON2 trial, Abida et al., 2020; cited from earlier work
PSMA- (PC3) = assay: Cell viability (Alamar Blue), monotherapy, PSMA- cells; type: cell-based; conditions: PC3, 20 µM, 72h, pretreated with 10 mM GSH; read-out: cell viability compared to untreated cells
Method: as §1

[2] = test system: PC3-PIP cells / PC3-flu cells; assay: Fluorescence microscopy of Ruc delivery in PSMA+ and PSMA- cells; type: cell-based; conditions: PSMA+ PC3-PIP versus PSMA- PC3-flu cells (Figure 4A)
Method: For microscopic analysis, black clear-bottom 96 well cell culture plates with cover-glass bottom (µ plate 96 well black; ibidi) were coated with poly-L-lysine (0.01% (w/v) in sterile water). Cells were seeded at a density of 20-40,000 cells/well and cultured for 24 h at 37 °C. Subsequently, the PSMA ligands (1 µM; 100 µL/well) were directly added with or without blocking and ligand treatment was accomplished for 5, 60 or 180 min at 37 °C, while in case of GSH preincubation, GSH-OEt (10 mM; 100 µL/well) was applied for 1 h at 37 °C prior to ligand treatment. For the latter case, the PSMA ligands (1 µM, 100 µL/well) were added after removal of the GSH containing medium and the incubation time was 60 min at 37 °C. Afterwards, cells were washed with PBS (2×) and fixed with 4% (w/v) PFA in PBS for 8 min at RT (pH 7.4, 100 µL/well). CellMask™ Green Plasma Membrane Stain was used to stain the cell membrane, whereas for cell nuclei DRAQ5™ was used. Before imaging, cells were washed with PBS (3×) and mounted in PBS (150 µL/well). Finally, cells were imaged using an EVOS M7000 microscope (Thermo Fisher Scientific).

[3] = Wilson et al. 2019; cited from earlier work

T1 sequence (Q04609 whole entry): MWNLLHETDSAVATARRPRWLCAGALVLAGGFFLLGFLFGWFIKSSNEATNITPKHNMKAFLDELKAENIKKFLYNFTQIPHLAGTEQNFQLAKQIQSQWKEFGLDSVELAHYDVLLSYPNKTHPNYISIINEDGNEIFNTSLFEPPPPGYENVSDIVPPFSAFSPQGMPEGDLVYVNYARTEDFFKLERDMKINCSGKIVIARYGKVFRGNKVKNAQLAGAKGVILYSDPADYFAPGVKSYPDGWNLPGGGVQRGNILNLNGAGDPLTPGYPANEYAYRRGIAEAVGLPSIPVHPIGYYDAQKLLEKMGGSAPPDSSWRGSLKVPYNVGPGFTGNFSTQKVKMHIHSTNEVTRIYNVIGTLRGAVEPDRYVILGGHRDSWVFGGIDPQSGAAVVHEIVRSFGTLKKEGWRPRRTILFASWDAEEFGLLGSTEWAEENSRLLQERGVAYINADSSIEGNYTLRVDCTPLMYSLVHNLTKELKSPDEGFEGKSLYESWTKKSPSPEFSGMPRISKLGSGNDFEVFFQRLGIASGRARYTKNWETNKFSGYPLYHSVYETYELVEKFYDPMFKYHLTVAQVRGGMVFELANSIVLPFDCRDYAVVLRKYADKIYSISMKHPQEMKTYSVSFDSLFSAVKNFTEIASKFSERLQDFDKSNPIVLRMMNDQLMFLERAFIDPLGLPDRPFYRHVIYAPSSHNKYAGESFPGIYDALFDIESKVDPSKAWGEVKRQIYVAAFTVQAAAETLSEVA

Question: Which median overall survival (late stage mCRPC) does the source give for `O=C([O-])CN1CCN(CC(=O)[O-])CCN(CC(=O)NCC2CCC(C(=O)N[C@@H](Cc3ccc4ccccc4c3)C(=O)NCCCC[C@H](NC(=O)N[C@@H](CCC(=O)O)C(=O)O)C(=O)O)CC2)CCN(CC(=O)[O-])CC1.[177Lu+3]` (stereo partly shown) [^177Lu-PSMA-617] here?
Answer: 15.3 months

Question: With `CN(Cc1ccc(-c2[nH]c3cc(F)cc4c3c2CCNC4=O)cc1)C(=O)CCCCCCC(=O)NCCCC[C@@H](NC(=O)CCC(C(=O)O)N1CCN(CC(=O)O)CCN(CC(=O)O)CCN(CC(=O)O)CC1)C(=O)N[C@H](CC(=O)O)C(=O)NCCC(=O)NC[C@H]1CC[C@H](C(=O)N[C@@H](Cc2ccc3ccccc3c2)C(=O)NCCCC[C@H](NC(=O)N[C@@H](CCC(=O)O)C(=O)O)C(=O)O)CC1` (stereo partly drawn) [Conjugate 13, DOTAGA-n-Lys(Ruc-Sub)-n-Asp-β-Ala-TXA-L-Nal-KuE] as the compound, how does the cytotoxic effects (PSMA+ (LNCaP); 20 µM) read?
Answer: did not show cytotoxic effects

Question: And the IC50 (PSMA)?
Answer: 0.67 ± 0.09 nM

Question: And the logD [1]?
Answer: -2.58 ± 0.05

Question: And the “% bound of total applied dose” value (LNCaP cells)?
Answer: 10.8 ± 2.07%

Question: What about the “stable (intact) after incubation in human serum” value (Serum stability; 2 hours) of the same compound?
Answer: 94%

Question: What about the “intact after incubation in human serum” value (Serum stability; 24 hours) of the same compound?
Answer: 89%

Question: Which “patients with a partial response” value (mCRPC) does the source give for `CNCc1ccc(-c2[nH]c3cc(F)cc4c3c2CCNC4=O)cc1` [Ruc, Rucaparib] here?
Answer: 30-40%

Question: And the “patients with an objective response” value (mCRPC)?
Answer: 44%

Question: What about the viability at 20 µM (PSMA+ (LNCaP); Homo sapiens, pretreated with 10 mM GSH, read-out: cell viability compared to untreated cells) of the same compound?
Answer: 30 to 50%

Question: What about the viability at 20 µM (PSMA- (PC3)) of the same compound?
Answer: 30 to 50%

Question: What about the “localization of Ruc fluorescence” value [2] of the same compound?
Answer: localized in the cell nucleus of PSMA-expressing and non-expressing cells non-selectively; also recorded: non-selective uptake in PSMA+ and PSMA- cells

Question: Which “typical biodistribution of PARPi” value [3] does the source give for `O=C(c1cc(Cc2n[nH]c(=O)c3ccccc23)ccc1[18F])N1CCN(C(=O)C2CC2)CC1` [^18F-Olaparib] here?
Answer: low tumor uptake and high gut uptake
